Calls of active or inactive are those of the source.
How the values were obtained:
Cytochrome P450 1A2 = target: T1, Cytochrome P450 1A2 (Homo sapiens, UniProt P05177);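 note: PubChem cytochrome P450 panel assay, CYP1A2 panel member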
T1 sequence (P05177 whole entry): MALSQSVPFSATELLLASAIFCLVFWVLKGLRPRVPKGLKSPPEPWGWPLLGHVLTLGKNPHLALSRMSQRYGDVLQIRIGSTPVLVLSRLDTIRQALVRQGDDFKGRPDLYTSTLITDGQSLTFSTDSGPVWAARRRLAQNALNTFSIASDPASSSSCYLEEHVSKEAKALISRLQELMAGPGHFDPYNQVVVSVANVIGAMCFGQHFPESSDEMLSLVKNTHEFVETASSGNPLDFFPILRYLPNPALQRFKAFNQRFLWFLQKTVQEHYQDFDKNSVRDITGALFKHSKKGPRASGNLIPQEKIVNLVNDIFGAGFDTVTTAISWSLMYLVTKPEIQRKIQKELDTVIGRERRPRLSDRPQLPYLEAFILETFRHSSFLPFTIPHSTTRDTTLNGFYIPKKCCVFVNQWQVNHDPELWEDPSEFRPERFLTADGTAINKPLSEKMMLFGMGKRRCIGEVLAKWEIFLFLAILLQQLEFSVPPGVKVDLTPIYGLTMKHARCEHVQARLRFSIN

Cytochrome P450 2C19 = Cytochrome P450 2C19 (Homo sapiens, UniProt P33261); assay: Cytochrome panel assay with activity outcomes. Panel member name: p450-cyp2c19 Compounds with AC50 equal or less than 10 uM are considered active; assay type: functional
Chain of Cytochrome P450 2C19 (P33261 whole entry): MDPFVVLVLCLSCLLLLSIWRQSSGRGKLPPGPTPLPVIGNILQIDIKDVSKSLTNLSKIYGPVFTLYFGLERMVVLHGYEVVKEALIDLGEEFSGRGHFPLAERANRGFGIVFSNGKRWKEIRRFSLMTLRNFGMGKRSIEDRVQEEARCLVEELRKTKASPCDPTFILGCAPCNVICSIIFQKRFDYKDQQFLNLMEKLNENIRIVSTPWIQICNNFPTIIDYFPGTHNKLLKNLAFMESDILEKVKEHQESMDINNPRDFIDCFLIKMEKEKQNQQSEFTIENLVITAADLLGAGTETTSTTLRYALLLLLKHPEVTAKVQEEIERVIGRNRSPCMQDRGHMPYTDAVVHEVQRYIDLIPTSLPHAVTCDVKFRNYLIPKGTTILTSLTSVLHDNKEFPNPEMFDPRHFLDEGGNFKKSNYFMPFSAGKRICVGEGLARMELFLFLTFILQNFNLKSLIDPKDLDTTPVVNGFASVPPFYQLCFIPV

[1] = target: T2, Polyadenylate-binding protein 1 (Homo sapiens, UniProt P11940); assay: MLLE binding blockers, Cy5 peptide tracer – biochemical, fluorescence polarization, Cy5-PAM2 peptide, secondary, miRNA deadenylation inhibitor project, dose response (AID 602260); assay type: functional; details: read-out: IC50_Mean
T2 sequence (P11940 whole entry, the tested form may be a part): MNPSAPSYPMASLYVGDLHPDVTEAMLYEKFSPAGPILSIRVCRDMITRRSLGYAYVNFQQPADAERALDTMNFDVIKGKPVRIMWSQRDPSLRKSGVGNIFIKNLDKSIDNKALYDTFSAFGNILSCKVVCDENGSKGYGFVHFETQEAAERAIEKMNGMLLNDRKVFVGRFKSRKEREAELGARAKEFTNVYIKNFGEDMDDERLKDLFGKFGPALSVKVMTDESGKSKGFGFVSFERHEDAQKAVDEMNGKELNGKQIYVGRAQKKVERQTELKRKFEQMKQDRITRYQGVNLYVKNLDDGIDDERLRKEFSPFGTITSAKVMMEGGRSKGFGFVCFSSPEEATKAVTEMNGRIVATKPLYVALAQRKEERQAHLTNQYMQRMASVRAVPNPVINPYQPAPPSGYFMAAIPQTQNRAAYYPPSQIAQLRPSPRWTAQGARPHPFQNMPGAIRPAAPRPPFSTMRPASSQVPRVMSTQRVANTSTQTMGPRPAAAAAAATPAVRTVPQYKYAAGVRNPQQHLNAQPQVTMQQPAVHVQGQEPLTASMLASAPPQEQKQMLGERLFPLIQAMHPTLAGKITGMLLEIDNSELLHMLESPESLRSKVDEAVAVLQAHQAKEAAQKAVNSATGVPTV

[2] = target: T2, Polyadenylate-binding protein 1; assay: MLLE domain peptide-binding blockers, IC50 – biochemical, fluorescence polarization, FITC-PAM2 peptide, dose response (AID 602259); assay type: functional; details: read-out: IC50_Mean
[3] = viability of uninfected HEp-2 cells – cell-based, HTS, cytotoxicity control for RSV inhibitor project, dose response (AID 2410); assay type: functional; details: human respiratory syncytial virus
[4] = target: FAD-linked sulfhydryl oxidase ALR (Homo sapiens, UniProt P55789); assay: ALR-catalysed DTT oxidation blockers – biochemical, H2O2 detection, luminescence, cherry-pick, dose response (AID 493248)
Chain of FAD-linked sulfhydryl oxidase ALR (P55789 whole entry): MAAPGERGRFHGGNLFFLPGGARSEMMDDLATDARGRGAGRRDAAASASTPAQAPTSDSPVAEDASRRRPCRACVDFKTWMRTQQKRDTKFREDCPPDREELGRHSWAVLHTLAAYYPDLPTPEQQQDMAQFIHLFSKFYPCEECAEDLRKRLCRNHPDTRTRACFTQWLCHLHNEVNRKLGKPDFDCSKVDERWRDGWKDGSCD

[5] = Luminescence Cell-Based Dose Confirmation HTS to Identify Activators of 5'UTR Stem-Loop Driven Alpha-Synuclein mRNA Translation in H4 Neuroglioblastoma Cells. [Related pubchem assays: 1829 (Project Summary), 1814 (Primary HTS)]; assay type: functional
H4 = assay: Luminescence Cell-Based Dose Response HTS to Identify Activators of 5'UTR Stem-Loop Driven Prion Protein mRNA Translation in H4 Neuroglioblastoma Cells. [Related pubchem assays: 1829 (Project Summary), 1814 (Primary HTS)]; assay type: functional; details: Homo sapiens
[6] = Luminescence Cell-Based Dose Response HTS to Identify Activators of Luciferase Translation or Activity in H4 […] Cells. [Related pubchem assays: 1829 (Project Summary), 1814 (Primary HTS)]; assay type: functional
[7] = Luminescence Cell-Based Dose Retest to Confirm Inhibitors of Cancer Stem Cells. [Related pubchem assays (depositor defined):AID2717, AID2721]; assay type: functional; details: Homo sapiens
[8] = NIH3T3 cell viability loss – ATP luminescence, mouse fibroblasts, counter-screen, dose response (AID 2010); assay type: functional, cell-based;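 note: cells exposed to compound for about 90 hours before reading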
[9] = Trypanosoma cruzi growth suppression in host cells – NIH3T3 host cells, beta-gal luminescence, confirmation (AID 2044); assay type: functional, cell-based;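 note: intracellular parasites grown in NIH/3T3 mouse fibroblasts as host cells; luminescent beta-galactosidase reporter signal from transgenic T. cruzi replicating inside host cells; inhibitors lower the luminescence signal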
Genome polyprotein = Genome polyprotein (dengue virus type 2, UniProt P29990); assay: flavivirus cap methylation enzyme inhibition – biochemical, confirmation dose response, primary screen (AID 588689); assay type: functional
Chain of Genome polyprotein (P29990 2492-3391 limits assumed): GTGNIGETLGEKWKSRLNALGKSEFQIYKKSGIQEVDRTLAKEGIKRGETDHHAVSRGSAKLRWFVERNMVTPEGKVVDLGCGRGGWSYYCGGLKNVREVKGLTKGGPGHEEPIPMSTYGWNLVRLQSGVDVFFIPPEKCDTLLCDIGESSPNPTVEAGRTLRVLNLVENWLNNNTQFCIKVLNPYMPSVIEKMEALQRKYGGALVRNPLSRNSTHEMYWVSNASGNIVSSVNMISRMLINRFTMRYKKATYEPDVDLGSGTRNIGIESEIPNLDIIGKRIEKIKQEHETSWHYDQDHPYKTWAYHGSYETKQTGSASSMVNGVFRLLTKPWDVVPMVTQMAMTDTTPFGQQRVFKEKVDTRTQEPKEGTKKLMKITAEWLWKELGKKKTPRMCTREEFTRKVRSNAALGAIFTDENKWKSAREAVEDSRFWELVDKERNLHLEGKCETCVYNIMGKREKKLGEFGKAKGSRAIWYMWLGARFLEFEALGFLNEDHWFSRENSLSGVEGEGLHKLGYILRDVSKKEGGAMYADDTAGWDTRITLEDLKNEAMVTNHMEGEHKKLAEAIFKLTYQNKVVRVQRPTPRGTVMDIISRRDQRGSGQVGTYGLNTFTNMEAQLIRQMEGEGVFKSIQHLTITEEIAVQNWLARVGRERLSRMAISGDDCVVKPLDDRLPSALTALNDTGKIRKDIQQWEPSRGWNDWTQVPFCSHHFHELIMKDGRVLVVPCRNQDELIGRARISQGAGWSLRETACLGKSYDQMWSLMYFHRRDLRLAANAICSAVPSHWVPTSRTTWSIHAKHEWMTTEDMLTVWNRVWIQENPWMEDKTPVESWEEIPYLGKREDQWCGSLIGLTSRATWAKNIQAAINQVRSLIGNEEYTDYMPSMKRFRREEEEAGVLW

[10] = target: T3, Corticotropin-releasing factor receptor 2/Corticotropin-releasing factor-binding protein (Homo sapiens, UniProt P24387+Q13324); assay: activators of CRF receptor 2 with binding protein – uHTS hits, confirmation (AID 602473); assay type: functional; details: read-out: EC50_Mean
T3 sequence (Q13324 whole entry): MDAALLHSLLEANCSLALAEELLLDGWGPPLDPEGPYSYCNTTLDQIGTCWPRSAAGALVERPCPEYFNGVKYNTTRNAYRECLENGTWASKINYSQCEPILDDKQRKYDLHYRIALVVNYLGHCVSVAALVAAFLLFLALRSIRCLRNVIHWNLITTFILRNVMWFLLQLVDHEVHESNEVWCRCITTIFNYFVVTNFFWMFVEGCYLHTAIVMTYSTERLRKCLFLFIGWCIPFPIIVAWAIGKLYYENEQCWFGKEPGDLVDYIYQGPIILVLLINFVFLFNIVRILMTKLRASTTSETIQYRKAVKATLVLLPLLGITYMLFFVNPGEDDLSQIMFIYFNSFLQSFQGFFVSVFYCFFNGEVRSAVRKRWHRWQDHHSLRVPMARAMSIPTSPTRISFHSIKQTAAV
T3 sequence (P24387 whole entry): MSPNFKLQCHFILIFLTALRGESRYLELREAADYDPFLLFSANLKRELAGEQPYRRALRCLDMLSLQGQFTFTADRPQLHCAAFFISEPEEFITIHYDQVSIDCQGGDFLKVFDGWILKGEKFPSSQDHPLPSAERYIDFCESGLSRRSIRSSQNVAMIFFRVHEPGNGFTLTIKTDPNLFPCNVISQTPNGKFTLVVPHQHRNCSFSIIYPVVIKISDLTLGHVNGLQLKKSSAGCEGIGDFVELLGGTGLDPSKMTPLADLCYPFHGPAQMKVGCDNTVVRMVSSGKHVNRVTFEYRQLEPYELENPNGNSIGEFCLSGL

SMILES: COC(=O)N1CCC2(CCCN(C(c3ccccc3)c3ccccc3)C2)CC1
- AC50 (Cytochrome P450 1A2): 15.8 µM (inconclusive)
- AC50 (Cytochrome P450 2C19; read-out: AC50): 25.1 µM (inconclusive)

SMILES: O=C(NC(=S)Nc1ccc2c(c1)OCCO2)c1cccc(Br)c1
- IC50 [1]: > 66 µM (inactive)
- IC50 [2]: > 66 µM (inactive)
- CC50 [3]: 34.8 µM (active)

SMILES: CN(C)Cc1ccc(C(C)(C)C)cc1-c1cc(C(C)(C)C)ccc1CN(C)C
- AC50 (Cytochrome P450 2C19): inconclusive

SMILES: CCOC(=O)C1CCCN(C(=O)c2ccc(-c3ccc([N+](=O)[O-])cc3)o2)C1 (configuration not stated)
- IC50 [1]: > 66 µM (inactive)
- IC50 [2]: > 66 µM (inactive)

SMILES: COc1cc(/C=N/Nc2ccccc2)ccc1O
- AC50 [4]: 0.887 µM (active)

SMILES: C/C(=N/NC(=O)c1ccoc1C)C12CC3CC(CC(C3)C1)C2
- EC50 [5]: > 120 µM (not active)
- EC50 (H4): 42.6 µM (active)
- EC50 [6]: > 120 µM (not active)

SMILES: CCNc1ccc(C(=O)O)cc1N
- AC50 [4]: 1.41 µM (active)

SMILES: Cc1ccccc1CSc1ccc(-c2ccc3c(c2)OCO3)nn1
- AC50 [7]: 6.68 µM (active)

SMILES: CCOc1cc(N2CCOCC2)c(OCC)cc1NC(=O)CN1CCC(Cc2ccccc2)CC1
- EC50 [8]: > 60 µM (not active)
- EC50 [9]: 1.36 µM (active)
- AC50 [7]: 2.28 µM (active)

SMILES: O=C(O)[C@H]1C[C@]2(C[C@H](C(=O)O)C2)C1 (some centres not stated)
- AC50 (Cytochrome P450 2C19): inconclusive

SMILES: C/C(=N/Nc1ccc(C(=O)O)cc1)c1ccc(O)c(O)c1O
- IC50 (Genome polyprotein): > 100 µM (active)

SMILES: CC(=O)Nc1ccc(OCC(O)CN2CCN(c3cc(Cl)ccc3C)CC2)cc1 (configuration not stated)
- AC50 [7]: 1.77 µM (active)

SMILES: O=S(=O)(NC(=S)c1ccccc1)c1ccccc1
- IC50 [1]: > 66 µM (inactive)
- IC50 [2]: > 66 µM (inactive)

SMILES: CCN1CCN(/C=N/c2nc(C)cs2)CC1
- EC50 [5]: 14.2 µM (active)
- EC50 (H4): > 120 µM (not active)
- EC50 [6]: 51.9 µM (active)

SMILES: O=C(NC1CCCCCC1)C1CCCN1S(=O)(=O)c1cccc2cccnc12 (configuration not stated)
- AC50 [4]: 10.7 µM (active)

SMILES: CC(=O)Oc1oc(-c2ccccc2)nc1/C=N/c1ccccc1
- EC50 [10]: 22.3 µM (active)
- IC50 (Genome polyprotein): 86.3 µM (active)

SMILES: CN(CC(=O)Nc1ccc(Cl)c(Cl)c1)CC(=O)Nc1ccc2c(c1)OCO2
- AC50 [7]: 10.2 µM (active)

SMILES: COc1ccc2c(c1)[nH]c1c(=O)n(/N=C/C3C(C)C=C(C)CC3C)c(=O)[nH]c12 (configuration not stated)
- AC50 [7]: > 100 µM (inactive)

SMILES: COc1ccccc1CNC(=O)CSC1=NCCS1
- IC50 [1]: > 66 µM (inactive)
- IC50 [2]: > 66 µM (inactive)
